{"source": "patent US6509163B1", "about": "“Methods of screening modulators of mammalian P2X7 purinergic receptors” (Glaxo Group Limited, priority 1997, dated 2003)", "type_in_all_cases": "cell-based", "key": {"P2X7 receptor [1]": {"biological_target": "T1, P2X7 receptor (Rattus norvegicus, UniProt Q64663)", "T1 construct": "yielding a construct that encoded the entire P2X7 protein; expressed in transfected cells", "T1 sequence (Q64663 1-595)": "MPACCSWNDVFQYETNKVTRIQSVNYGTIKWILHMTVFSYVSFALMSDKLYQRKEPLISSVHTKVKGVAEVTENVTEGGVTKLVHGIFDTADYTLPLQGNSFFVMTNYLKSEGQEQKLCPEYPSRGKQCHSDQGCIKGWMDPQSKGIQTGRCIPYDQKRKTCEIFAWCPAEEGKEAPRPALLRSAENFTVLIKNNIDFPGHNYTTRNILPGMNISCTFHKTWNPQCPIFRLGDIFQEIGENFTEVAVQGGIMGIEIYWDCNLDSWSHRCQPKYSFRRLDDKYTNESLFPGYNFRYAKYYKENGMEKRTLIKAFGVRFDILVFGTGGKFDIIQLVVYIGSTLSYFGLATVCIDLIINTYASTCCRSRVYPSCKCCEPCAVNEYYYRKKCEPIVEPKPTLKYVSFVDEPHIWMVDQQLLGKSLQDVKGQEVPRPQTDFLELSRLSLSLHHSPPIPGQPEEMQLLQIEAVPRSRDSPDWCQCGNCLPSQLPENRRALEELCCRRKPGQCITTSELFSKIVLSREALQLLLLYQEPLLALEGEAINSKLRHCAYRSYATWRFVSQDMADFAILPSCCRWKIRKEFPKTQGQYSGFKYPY", "assay": "Whole-cell recordings of agonist-evoked currents in HEK293 cells transfected with rat P2X7 cDNA (Example 2)", "conditions": "for EC50: read-out: EC50 (half-maximal concentration) for current; for agonist effect (evoking inward current): concentration 300 to 1000 μM", "description": "(§1) Whole-cell recordings were obtained at room temperature from HEK293 cells transiently or stably transfected with P2X7 cDNA, from HEK293 cells transiently transfected with P2X7ΔC cDNA, and from J774A.1 cells (American Type Culture Collection, Rockville, Md.). Agonist were applied for periods of 1 to 3 s by a fast-flow U-tube delivery system (Fenwick et al, J. Physiol. (London) 331:577 (1982)). The internal pipette solution was 140 mM cesium-aspartate or potassium-aspartate, 20 mM NaCl, 10 mM EGTA, and 5 mM Hepes: normal external solution was 145 mM NaCl, 2 mM KCl, 2 mM CaCl2, 1 mM MgCl2, 10 mM Hepes, and 12 mM glucose. Low divalent external solution was nominally magnesium-free with 0.3 mM CaCl2. For cells expressing P2X7 receptors and J774 cells, concentration-response curves were constructed in low divalent solution by recording currents in response to 1-s applications of agonist at 8-min intervals with normal external solution present for 6 min before each application. This protocol was necessary to prevent the development of sustained inward currents. Lipofectin was used for transfection (Buell et al, EMBO J. 15:55 (1996)).\nReversal potentals (Erev) were obtained by application of ATP (300 μM) or BzATP (30 μM) while the membrane was held at various potentals or by application of voltage ramps from −120 to 30 or 50 mV. Permeability ratios from (Erev) were calculated by first computing α (=Pna/PK, where P is permeability) for internal (i) and external (o) concentrations [Na]i=20 mM, [Na]o=145 mM, [Ko]=0 mM, and [K]i=140 mM from α={[145/exp(Erev)F/RT −20]}/140 (where F is the Faraday, R is the gas constant, and T is the absolute temperature). Other PK/PNa values, when [X]o=145 mM, [Na]i=20 mM, [K]i=140 mM, and [Na]o=[K]o=[X]i=0 mM, were computed from PK/PNa={[exp (ErevF/RT) (20=140α)}/145. In order of size (FIG. 3C), X was cesium, methylamine, tris(hydroxymethyl)-aminomethane, tetraethylammonium, and N-methyl-D-glucamine. The internal solution also contained 10 mM EGTA and 5 mM Hepes. External solutions also contained 10 mM glucose and normal or low concentrations of divalent cations; pH was maintained at 7.3 with HCl, histidine, or Hepes as required, and the osmolarity of all solutions was 295 to 315."}, "hP2X7 receptor": {"biological_target": "T2, hP2X7 receptor (Homo sapiens, UniProt Q99572)", "T2 construct": "a clone containing the complete open reading frame of the hP2X7 receptor was constructed; expressed in transfected cells; host or cells: HEK293 (transient), pcDNA3", "T2 sequence (Q99572 1-595)": "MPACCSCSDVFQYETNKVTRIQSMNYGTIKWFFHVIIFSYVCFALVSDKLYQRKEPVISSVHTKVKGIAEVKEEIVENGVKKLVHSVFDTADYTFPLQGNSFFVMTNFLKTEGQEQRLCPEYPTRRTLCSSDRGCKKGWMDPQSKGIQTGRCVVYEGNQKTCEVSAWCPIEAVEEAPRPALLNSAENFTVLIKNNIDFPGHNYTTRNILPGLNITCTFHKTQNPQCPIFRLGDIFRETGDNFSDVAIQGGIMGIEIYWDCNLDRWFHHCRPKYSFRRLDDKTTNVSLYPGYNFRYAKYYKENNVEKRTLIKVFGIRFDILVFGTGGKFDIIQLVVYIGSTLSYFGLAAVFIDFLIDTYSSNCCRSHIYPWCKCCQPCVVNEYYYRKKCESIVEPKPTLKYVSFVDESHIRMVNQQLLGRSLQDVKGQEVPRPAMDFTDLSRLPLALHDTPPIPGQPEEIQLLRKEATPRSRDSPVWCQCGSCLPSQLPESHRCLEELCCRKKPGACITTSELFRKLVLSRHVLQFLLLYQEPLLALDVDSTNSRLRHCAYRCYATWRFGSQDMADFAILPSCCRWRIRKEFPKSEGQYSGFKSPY", "assay": "Whole-cell recordings in HEK293 cells transiently transfected with hP2X7 receptors (Example 3)", "description": "(§2) Cell culture. HEK293 cells were transiently transfected with cDNA (1 μg/ml) and lipofectin dissolved in Optimem (GIBCO) placed into petri dishes containing four coverslips onto which cells were plated at a density of about 8×10^4/coverslip. Cells were washed 5 h later and normal DMEM applied. Electrophysiological studies or dye uptake measurements were carried out 18-49 h later. For each set of transfections, parallel experiments were performed on HEK cells transfected with cDNA encoding both rP2X7 and hP2X7 receptors.\n(§3) Electrophysiological experiments. Whole-cell recordings were made using the EPC9 patch-clamp amplifier and Pulse acquisition programs (HEKA, Lambrecht, Germany). Patch pipettes (5-7 MΩ) contained (mM) CsCl or NaCl 154, EGTA 10, HEPES 5. The normal extracellular solution contained (mM) NaCg 147, KCl2, CaCl2 2, MgCl2 1, HEPES 10 and glucose 12, and the “low divalent” solution had no magnesium and 0.3 mM CaCl2. Agonists were delivered by U-tube delivery system; antagonists, when applied, were present in both superfusion and U-tube. Experiments were carried out at room temperature."}, "P2X7 receptor [2]": {"biological_target": "T1, P2X7 receptor", "assay": "Whole-cell recordings of agonist-evoked currents in HEK293 cells transfected with rat P2X7 cDNA (Example 2)", "conditions": "inward currents, brief application (0.5 to 2 s)"}, "rP2X7 receptor": {"biological_target": "T3, rP2X7 receptor (Rattus norvegicus, UniProt Q64663)", "T3 construct": "yielding a construct that encoded the entire P2X7 protein; expressed in transfected cells", "T3 sequence (Q64663 1-595)": "T1 sequence (Q64663 1-595)", "assay": "Whole-cell recordings in HEK293 cells transiently transfected with rP2X7 receptors (Example 3)", "description": "as §2, §3"}, "J774 cells": {"system": "J774 cells", "assay": "Whole-cell recordings of BzATP-evoked currents in J774 macrophage cells", "conditions": "three J774 cells; read-out: half-maximal inhibition of currents evoked by 30 μM BzATP", "description": "as §1"}, "[3]": {"conditions": "percentage of value in 1 mM magnesium"}, "[4]": {"conditions": "vs 30 μM BzATP, n=3, read-out: concentration causing half-maximal inhibition of currents"}}, "note": "Like-named read-outs stand apart in the source and are kept apart here."}
{"smiles": "Nc1ncnc2c1ncn2[C@@H]1O[C@H](COP(=O)(O)OP(=O)(O)OP(=O)(O)O)[C@@H](O)[C@H]1O", "note": "[ATP]", "values": [{"measurement": "EC50", "setting": "P2X7 receptor [1]; normal solution (2 mM CaCl2, 1 mM MgCl2), n=4", "value": "115 ± 9", "unit": "µM"}, {"measurement": "EC50", "setting": "P2X7 receptor [1]; zero magnesium, n=7", "value": "85 ± 8", "unit": "µM"}, {"measurement": "EC50 at hP2X7 relative to rP2X7 receptor (fold greater)", "setting": "hP2X7 receptor", "value": "about 10 fold"}, {"measurement": "agonist order of potency", "setting": "P2X7 receptor [2]", "value": "BzATP>>ATP>2MeSATP>ATP-γ-S>>ADP"}]}
{"smiles": "[Mg+2]", "note": "[magnesium]", "values": [{"measurement": "IC50", "setting": "hP2X7 receptor; currents evoked by 300 μM BzATP, read-out: concentration of magnesium causing half-maximal inhibition of the current", "value": 212, "unit": "µM"}, {"measurement": "increase of currents on removal of external magnesium", "setting": "hP2X7 receptor; [3]", "value": "670±80", "unit": "%"}, {"measurement": "IC50", "setting": "rP2X7 receptor; currents evoked by 30 μM BzATP, read-out: concentration of magnesium causing half-maximal inhibition of the current", "value": 780, "unit": "µM"}, {"measurement": "increase of currents on removal of external magnesium", "setting": "rP2X7 receptor; [3]", "value": "420±84", "unit": "%"}]}
{"smiles": "Nc1ncnc2c1ncn2[C@@H]1O[C@H](COP(=O)(O)OP(=O)(O)O)[C@@H](O)[C@H]1O", "note": "[ADP]", "values": [{"measurement": "agonist order of potency", "setting": "P2X7 receptor [2]", "value": "BzATP>>ATP>2MeSATP>ATP-γ-S>>ADP"}]}
{"smiles": "Cc1ccc(C(=O)Nc2ccc(S(=O)(=O)O)c3cc(S(=O)(=O)O)cc(S(=O)(=O)O)c23)cc1NC(=O)c1cccc(NC(=O)Nc2cccc(C(=O)Nc3cc(C(=O)Nc4ccc(S(=O)(=O)O)c5cc(S(=O)(=O)O)cc(S(=O)(=O)O)c45)ccc3C)c2)c1", "note": "[suramin]", "values": [{"measurement": "inhibition at 300 µM", "setting": "P2X7 receptor [1]; read-out: inhibition of currents evoked by 30 μM BzATP", "value": "15 to 38", "unit": "%"}, {"measurement": "IC50", "setting": "rP2X7 receptor; [4]", "value": "78 ± 3", "unit": "µM"}]}
{"smiles": "Nc1ncnc2c1ncn2[C@@H](C=O)O[C@@H](C=O)COP(=O)(O)OP(=O)(O)OP(=O)(O)O", "note": "[Oxidized ATP]", "values": [{"measurement": "block of currents evoked by 30 μM BzATP", "setting": "P2X7 receptor [1]; 100 μM, cells preincubated for 1 to 2 hours, n=5", "value": "irreversibly blocked currents"}]}
{"smiles": "CSc1nc(N)c2ncn([C@@H]3O[C@H](COP(=O)(O)OP(=O)(O)OP(=O)(O)O)[C@@H](O)[C@H]3O)c2n1", "note": "[2MeSATP]", "values": [{"measurement": "agonist order of potency", "setting": "P2X7 receptor [2]", "value": "BzATP>>ATP>2MeSATP>ATP-γ-S>>ADP"}]}
{"smiles": "Cc1nc(N=Nc2ccc(S(=O)(=O)O)cc2S(=O)(=O)O)c(COP(=O)(O)O)c(C=O)c1O", "note": "[PPADS, pyridoxal 5-phosphate-6-azophenyl 2′4′-disulfonic acid]", "values": [{"measurement": "IC50", "setting": "P2X7 receptor [1]; four HEK cells, read-out: half-maximal inhibition of currents evoked by 30 μM BzATP", "value": "45 ± 8", "unit": "µM"}, {"measurement": "IC50", "setting": "rP2X7 receptor; [4]", "value": "51 ± 4", "unit": "µM"}, {"measurement": "IC50", "setting": "J774 cells", "value": "60 ± 9", "unit": "µM"}]}
{"smiles": "NC(N)=NC(=O)c1nc(Cl)c(N2CCCCCC2)nc1N", "note": "[hexamethylene amiloride]", "values": [{"measurement": "blocking current evoked by 30 μM BzATP", "setting": "P2X7 receptor [1]; 100 μM, n=6", "value": "ineffective"}]}
{"smiles": "Nc1ncnc2c1ncn2[C@@H]1O[C@H](COP(=O)(O)OP(=O)(O)CP(=O)(O)O)[C@@H](O)[C@H]1O", "note": "[βγ-methylene ATP]", "values": [{"measurement": "agonist effect (evoking inward current)", "setting": "P2X7 receptor [1]", "value": "ineffective"}]}
{"smiles": "Nc1ncnc2c1ncn2[C@@H]1O[C@H](COP(=O)(O)CP(=O)(O)OP(=O)(O)O)[C@@H](O)[C@H]1O", "note": "[αβ-methylene ATP]", "values": [{"measurement": "agonist effect (evoking inward current)", "setting": "P2X7 receptor [1]", "value": "ineffective"}]}
{"smiles": "Nc1ncnc2c1ncn2[C@@H]1O[C@H](COP(=O)(O)OP(=O)(O)OP(O)(O)=S)[C@@H](O)[C@H]1O", "note": "[ATP-γ-S]", "values": [{"measurement": "agonist order of potency", "setting": "P2X7 receptor [2]", "value": "BzATP>>ATP>2MeSATP>ATP-γ-S>>ADP"}]}
{"smiles": "Nc1ncnc2c1ncn2[C@@H]1O[C@H](CO)[C@@H](O)[C@H]1O", "note": "[adenosine]", "values": [{"measurement": "agonist effect (evoking inward current)", "setting": "P2X7 receptor [1]", "value": "ineffective"}]}
{"smiles": "O=c1ccn([C@@H]2O[C@H](COP(=O)(O)OP(=O)(O)OP(=O)(O)O)[C@@H](O)[C@H]2O)c(=O)[nH]1", "note": "[UTP]", "values": [{"measurement": "agonist effect (evoking inward current)", "setting": "P2X7 receptor [1]", "value": "ineffective"}]}
